# Assay results reported in the METLIN SMRT retention time set (Domingo-Almenara et al. 2019).
# Test: gradient 5% acetonitrile 3 min, to 50% in 2 min, to 85% in 15 min, held 3 min, 100 µL/min
# Conditions: column: Zorbax Extend-C18 2.1 x 50 mm; eluents: water / acetonitrile, 0.1% formic acid
# Method in brief: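 Standards, all pure, were combined into mixtures of ~100 molecules and run at 100 μL/min on a Zorbax Extend-C18 column (2.1 × 50 mm, 1.8 μm) with water and acetonitrile, each containing 0.1% formic acid. A coupled quadrupole time-of-flight mass spectrometer operated in positive and negative ionization mode. Retention time values come from computationally picked adduct peaks, each inspected manually.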
row,Compound,RP-LC retention time [s]
1,CCc1ccc(NC(=O)NCCn2c(-c3ccncc3)nc3cccnc32)cc1,623
2,N#Cc1ccccc1NC(=O)CSc1cc(N2CCN(c3ccccc3F)CC2)ncn1,1120
3,CCn1cc(-c2nc(C(=O)Nc3cccc(C#N)c3)cs2)c2cccnc21,1030
4,Cc1ccc(CNC(=O)C2(C)CN(S(C)(=O)=O)CC(=O)N2c2ccc(Cl)cc2C)cc1 (stereo not given),919
5,Cc1cccc(NC(=O)NC2CCN(c3cc(C)cc(C)c3)C2=O)c1 (stereo not given),945
6,CN1C(=O)N(C)C2(CCN(C(=O)c3ccco3)CC2)C1=O,597
7,CCN1CCCC1CNC(=O)Cn1nc(C)n2nc(-c3ccccc3)cc2c1=O (stereo not given),635
8,CN(C)c1nn(CC(=O)Nc2ccc(Br)cc2)c(=O)c2ccccc12,932
9,Cc1cc(N2CCN(C(=O)c3cccc(C(F)(F)F)c3)CC2)nc2nnc(C)n12,649
10,Cc1cccc(C(=O)N2N=C(c3ccco3)CC2c2cccs2)c1 (stereo not given),940
11,O=C(NC1CC1)[C@@H]1C[C@H](Oc2cccnc2)CN1C(=O)C1CCC1,557
12,COc1ccc(CNC(=O)c2cc3sccc3n2C)cc1,894
13,Cn1cnc(C(=O)N2CC(c3nc(CCOCC4CCOCC4)no3)C2)c1,579
14,Cc1cccc2nnc(N3CCCC(C(=O)NCc4cccs4)C3)n12 (stereo not given),659
15,CCc1nnc([C@@H]2CC(F)(F)CN2S(=O)(=O)c2ccc(C)cc2)o1,696
16,CCc1ccccc1NC(=O)COc1cc(C)nc(N2CCN(c3ccccc3)CC2)n1,935
17,CC(C)Cn1cc(CCNS(=O)(=O)c2ccc3c(c2)CCC3)c2cccnc21,1040
18,CCc1nc(N)n(CC(=O)Nc2cc(C)ccc2OC)c(=O)c1C,640
19,Cc1ccc(C)c(N2CCN(S(=O)(=O)c3cc(-c4nnc(C5CC5)o4)co3)CC2)c1,1140
20,CN(C)[C@@H]1CN(C(=O)CCc2c[nH]c3ccccc23)C[C@H]1CO,573
21,O=C(NCCn1ncccc1=O)C1(c2cccs2)CCCC1,652
22,CCN(CC)S(=O)(=O)c1cc(-c2nnc(C)o2)co1,737

row,Compound,RP-LC retention time [s]
1,CCN1C(=O)NC(c2cccc(F)c2)C2=C1CN(CCC(=O)N1CCCC1)C2=O (stereo not given),606
2,Cc1sc(NC(=O)C2CC2)nc1-c1ccc2c(c1)N(C)C(=O)CO2,811
3,CCNC(=O)c1n[nH]c2c1CN(C(=O)c1cc(F)ccc1F)CC2,648
4,Cc1ccc(-c2n[nH]c(CCNC(=O)c3ccc(S(=O)(=O)N4CCOCC4)cc3)n2)cc1,704
5,CCn1ccc(C(=O)NC2CCN(c3nnc4ccc(Cl)cn34)CC2)n1,581
6,COCC(=O)Nc1cnc(-c2ccc(OC)cc2)nc1,724
7,Cc1nc(-n2cccc2)sc1C(=O)Nc1ccc(-c2cn3c(n2)SCC3)cc1,627
8,COc1cccc(-n2c(N3CCC(C(=O)NCC4CC4)CC3)nc3ccsc3c2=O)c1,745
9,COCc1nncn1C1CN(C(=O)Cc2cc(OC)cc(OC)c2)C1,620
10,CCc1nnc(NC(=O)CSc2nc3c(c(=O)n2CCOC)SC(C)C3)s1 (stereo not given),664
11,Cc1c(Cl)cccc1NC(=O)C1CCCN(c2ccc(-n3cccn3)nn2)C1 (stereo not given),784
12,COCCCNC(=O)C1c2ccccc2C(=O)N1CCCc1ccccc1 (stereo not given),761
13,CCOC(=O)N1CCN(S(=O)(=O)c2ccc(C(=O)Nc3cc(C)nn3C)cc2)CC1,687
14,CC(=O)c1ccc(NC(=O)Cn2c(-c3cnccn3)nc(C)c(C)c2=O)cc1,680
15,O=C(Nc1cnn(-c2ncncc2N2CCSCC2)c1)C1CCCCC1,778
16,CCCC(CCC)C(=O)NCc1nnnn1-c1ccc(OCC)cc1,882
17,O=C(NCCN1CCCCCC1)C1CCN(c2nc3cccnc3s2)CC1,598
18,COc1ccc(CC(=O)Nc2c3c(nn2-c2ccc([N+](=O)[O-])cc2)CSC3)cc1OC,777
19,CCOc1ccccc1NC(=O)C1CCN(S(=O)(=O)c2ccc3c(c2)NC(=O)C(C)O3)CC1 (stereo not given),897
20,CCN(CC)c1ncc2c(n1)CCC(C(=O)NCc1nc3ccccc3n1C)C2 (stereo not given),537
21,CCc1cc(=O)n(CC(=O)Nc2cc(F)ccc2F)c(N2CCOCC2)n1,770
22,COc1ccc(OC)c(S(=O)(=O)Nc2ccc3c(c2)CCC(=O)N3C)c1,675

# Next, values leading:
row,RP-LC retention time [s],Compound
1,859,CSc1ccccc1NC(=O)c1cc(=O)c(OCc2ccc(F)cc2)co1
2,1060,CCc1ccc(N2C(=O)C3N=NN(Cc4nc(-c5ccccc5Cl)no4)C3C2=O)cc1 (stereo not given)
3,818,COc1cccc(-n2c(N3CCCC(C(=O)NC4CCCC4)C3)nc3ccsc3c2=O)c1 (stereo not given)
4,1010,Cc1ccc(-c2nnc(-c3cccc(S(=O)(=O)N4CCCC4)c3)o2)cc1
5,568,O=C(Nc1ccc(F)cc1F)N1CCc2nc[nH]c2C1
6,993,Cc1ccc(NC(=O)N2CCCC(C)(C(=O)NCc3ccccc3)C2)c(Cl)c1 (stereo not given)
7,804,CN1c2ccccc2C(=O)NC12CCN(C(=O)Nc1cccc(Cl)c1)CC2
8,703,COc1ccc(Cc2nnc(C3CCN(C(=O)c4ccco4)CC3)s2)cc1
9,958,Cc1ccc(-c2cc(C(=O)NC3CCCCC3)c(C)[nH]2)cc1
10,929,CSc1ccc(CNC(=O)C2CCCN(C(=O)c3[nH]c(C)c(C(=O)OC(C)C)c3C)C2)cc1 (stereo not given)
11,1080,CCN1C(=O)C2(CCN(S(=O)(=O)c3ccc(OC)c(Cl)c3)CC2)c2ccccc21
12,1090,Cc1cccc(N2CCN(C(=O)C3CCCN(c4ncnc5c4nc4n5CCCCC4)C3)CC2)c1C (stereo not given)
13,742,CCCNC(=O)NCCC1CCN(S(=O)(=O)c2ccc(C)cc2)CC1
14,809,CCOc1ccc(CC(=O)N2CCN(c3cc(-c4cccs4)[nH]n3)CC2)cc1
15,1090,CCc1nc(-c2csc(S(=O)(=O)N3CCCC(C(=O)Nc4cc(F)ccc4F)C3)c2)no1 (stereo not given)
16,925,COc1ccc(NC(=O)Cn2cccc(-c3nc(-c4ccc(Br)cc4)no3)c2=O)cc1
17,781,COc1ccc(NC(=O)N2CCC3(CC2)NC(=O)c2ccccc2N3C)c(C)c1
18,716,CSc1nnc(-c2nn(C)c3c2CN(C(=O)c2ccc(C)cc2)CC3)n1C
19,1100,CCCn1cc(C(=O)NCc2ccc(F)cc2F)c(S(=O)(=O)N2CCC(C)CC2)n1
20,1010,CCOC(=O)c1cnc2c(cnn2CC)c1NN=C(C)C
21,836,COc1cccc(CNC2=NCCNC23CCN(S(=O)(=O)c2ccc(C(C)C)cc2)CC3)c1
22,636,COc1ccc(OC)c(S(=O)(=O)N2CCCC(C(=O)NCCO)C2)c1 (stereo not given)
23,734,COc1ccccc1-c1nnc(C2CCN(S(C)(=O)=O)CC2)s1

row,RP-LC retention time [s],Compound
1,634,Cc1nc([C@@H]2CCCN2C(=O)CCc2ccccc2)n[nH]1
2,814,Cc1ccc(CNC(=O)CCCn2c3ccccc3c3cnn(C)c(=O)c32)o1
3,747,CC1=C(c2ccc(C)c(C)c2)S(=O)(=O)N=C1N1CCC(NC(=O)C2CCOC2)CC1 (stereo not given)
4,658,Cc1cc(N2CCN(C)CC2)n2nc(-c3ccc(Cl)cc3)nc2n1
5,602,Cc1ccc(S(=O)(=O)N2CCC3(CC2)CCC(O)(CN2CCCC2)CC3)c(C)c1
6,754,COc1cccc(N2CCN(c3ccnc(SCC(=O)Nc4ccc(OC)c(Cl)c4)n3)CC2)c1
7,807,Cc1ccc(S(=O)(=O)N2CC3CN(C(=O)c4cccn4C)CC(C2)O3)cc1
8,786,Cn1nc(C(=O)N2CCCC(C(=O)Nc3ccccc3)C2)c2c1CCN(C(=O)C1CCCC1)C2 (stereo not given)
9,1020,CCc1ccc(-c2csc(NC(=O)C3CCCO3)n2)cc1 (stereo not given)
10,605,O=C(Cn1cnc2ccccc21)NCCCn1ccc2ccccc21
11,1080,O=C(c1ccco1)N1CCc2c([nH]c3ccccc23)C1c1ccc(F)cc1 (stereo not given)
12,666,CCn1cnc2cc(-c3noc(C(NC(=O)c4ccco4)C(C)C)n3)ccc21 (stereo not given)
13,1270,Cc1ccccc1-c1nc(-c2ccc3c(c2)oc(=O)n3C(C)C)no1
14,606,O=C(NC1CCN(c2nnc3ccc(Cl)cn23)CC1)c1ccco1
15,563,c1ccc(N2CCN(c3c4c(nc5ncnn35)CCC4)CC2)nc1
16,1100,CC1(C)CC(=O)c2cc3c(N)c(C(=O)Nc4ccccc4[N+](=O)[O-])sc3nc2C1
17,578,Cc1nc(C)c(-c2nnc(NC(=O)c3ccc(=O)[nH]n3)o2)s1
18,812,Cc1ccc(CNc2c(-c3ccc(C)cc3)nc3ncccn23)cc1
19,699,Cc1noc(-c2nn(C)c3c2CN(C(=O)NCc2ccc(F)cc2)CC3)n1
20,991,O=C(NCc1ccco1)c1csc(N2CCN(c3ccc(F)cc3)CC2)n1
21,716,Cc1cccc(NC(=O)Nc2c(-c3cccc(C)c3)nc3ccccn23)c1
22,546,Cc1nnc(NC(=O)CN2CCc3nc(NC(=O)c4cnccn4)sc3C2)s1
23,917,Cc1ccnc(SCC(=O)Nc2nc(-c3ccccc3)cs2)n1
